Read-outs that look alike come from different tables or passages of the source.
Assay: CD69 Whole Blood Assay (CD69 Hu Blood FACS)
Assay type: cell-based, human
Conditions: Lymphocyte, human whole blood, anti-IgM activated B lymphocytes, FACS, IC70
Procedure, shortened: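 Compounds tested for blocking B-cell CD69 induction by flow cytometry in human whole blood, with activation via anti-human IgM goat F(ab′)2 crosslinking of surface IgM.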

[1] = Table 1, read-out: CD69 Hu Blood FACS IC70
[2] = Table 2 (unit inferred), read-out: CD69 Hu Blood FACS (IC70)

Row | SMILES | IC70 [1] [nM] | IC70 [2] [nM]
1 | CN1CCn2nc(Nc3cc(-c4ccnc(N5CCn6c(cc7c6CC(C)(C)C7)C5=O)c4CO)cn(C)c3=O)cc2C1 [Example 141, 2-[3′-Hydroxymethyl-1-methyl-5-(5-methyl-4,5,6,7-tetrahydro-pyrazolo[1,5-a]pyrazin-2-ylamino)-6-oxo-1,6-dihydro-[3,4′]bipyridinyl-2′-yl]-7,7-dimethyl-3,4,7,8-tetrahydro-2H,6H-cyclopenta[4,5]pyrrolo[1,2-a]pyrazin-1-one] | 26.6 | –
2 | C[C@H]1COCCN1C(=O)c1ccc(Nc2cc(-c3ccnc(N4CCn5c(cc6c5CC(C)(C)C6)C4=O)c3CO)cn(C)c2=O)nc1 [Example 257, 3-[3-(hydroxymethyl)-4-[1-methyl-5-[[5-[(3 S)-3-methylmorpholine-4-carbonyl]-2-pyridyl]amino]-6-oxo-3-pyridyl]-2-pyridyl]-7,7-dimethyl-1,2,6,8-tetrahydrocyclopenta[3,4]pyrrolo[3,5-b]pyrazin-4-one] | – | 21.6
3 | CN1CCn2nc(Nc3cc(-c4ccnc(N5CCc6c(c(F)c7n6CCCC7)C5=O)c4CO)cn(C)c3=O)cc2C1 [Example 241, 10-fluoro-2-[3-(hydroxymethyl)-4-[1-methyl-5-[(5-methyl-6,7-dihydro-4H-pyrazolo[1,5-a]pyrazin-2-yl)amino]-6-oxo-3-pyridyl]-2-pyridyl]-3,4,6,7,8,9-hexahydropyrido[3,4-b]indolizin-1-one] | – | 190
4 | Cn1cc(-c2ccnc(N3CCn4c(cc5c4CC(C)(C)C5)C3=O)c2CO)cc(Nc2ccc(C#N)cn2)c1=O [Example 276, 6-[[5-[2-(7,7-dimethyl-4-oxo-1,2,6,8-tetrahydrocyclopenta[3,4]pyrrolo[3,5-b]pyrazin-3-yl)-3-(hydroxymethyl)-4-pyridyl]-1-methyl-2-oxo-3-pyridyl]amino]pyridine-3-carbonitrile] | – | 358
5 | C[C@@H]1CN(c2ccc(Nc3cc(-c4ccnc(N5CCn6c(cc7c6CC(C)(C)C7)C5=O)c4CO)cn(C)c3=O)nc2)[C@@H](C)CN1C1COC1 [Example 158, 2-{5-[5-((2S,5R)-2,5-Dimethyl-4-oxetan-3-yl-piperazin-1-yl)-pyridin-2-ylamino]-3′-hydroxymethyl-1-methyl-6-oxo-1,6-dihydro-[3,4′]bipyridinyl-2′-yl}-7,7-dimethyl-3,4,7,8-tetrahydro-2H,6H-cyclopenta[4,5]pyrrolo[1,2-a]pyrazin-1-one] | 20 | –
6 | Cn1cc(-c2ccnc(N3CCn4c(cc5c4CC(C)(C)C5)C3=O)c2CO)cc(Nc2cc3n(n2)CCOC3)c1=O [Example 168, 2-[5-(6,7-Dihydro-4H-pyrazolo[5,1-c][1,4]oxazin-2-ylamino)-3′-hydroxymethyl-1-methyl-6-oxo-1,6-dihydro-[3,4′]bipyridinyl-2′-yl]-7,7-dimethyl-3,4,7,8-tetrahydro-2H,6H-cyclopenta[4,5]pyrrolo[1,2-a]pyrazin-1-one] | 63.5 | –
7 | Cn1cc(-c2ccnc(N3CCn4c(cc5c4CC(C)(C)C5)C3=O)c2CO)cc(Nc2cc3n(n2)CCN(C2COC2)C3)c1=O [Example 163, 2-[3′-Hydroxymethyl-1-methyl-5-(5-oxetan-3-yl-4,5,6,7-tetrahydro-pyrazolo[1,5-a]pyrazin-2-ylamino)-6-oxo-1,6-dihydro-[3,4′]bipyridinyl-2′-yl]-7,7-dimethyl-3,4,7,8-tetrahydro-2H,6H-cyclopenta[4,5]pyrrolo[1,2-a]pyrazin-1-one] | 22.8 | –
8 | CN1CCN(c2cccc(Nc3cc(-c4ccnc(N5CCn6c(cc7c6CCCC7)C5=O)c4CO)cn(C)c3=O)n2)CC1 [Example 110, 2-(3-(Hydroxymethyl)-4-(1-methyl-5-(6-(4-methylpiperazin-1-yl)pyridine-2-ylamino)-6-oxo-1,6-dihydropyridin-3-yl)pyridin-2-yl)-3,4,6,7,8,9-hexahydropyrazino[1,2-a]indol-1(2H)-one] | 2700 | –
9 | C[C@H]1CN(C2COC2)CCN1c1ccc(Nc2cc(-c3ccnc(N4CCn5c(cc6c5CC(C)(C)C6)C4=O)c3CO)nn(C)c2=O)nc1 [Example 224, 3-[3-(hydroxymethyl)-4-[1-methyl-5-[[5-[(2S)-2-methyl-4-(oxetan-3-yl)piperazin-1-yl]-2-pyridyl]amino]-6-oxo-pyridazin-3-yl]-2-pyridyl]-7,7-dimethyl-1,2,6,8-tetrahydrocyclopenta[3,4]pyrrolo[3,5-b]pyrazin-4-one] | – | 30.7
10 | Cn1cc(-c2ccnc(N3CCn4c(cc5c4CC(C)(C)C5)C3=O)c2CO)cc(Nc2ccn3ccnc3n2)c1=O [Example 199, 3-[3-(hydroxymethyl)-4-[5-(imidazo[1,2-a]pyrimidin-7-ylamino)-1-methyl-6-oxo-3-pyridyl]-2-pyridyl]-7,7-dimethyl-1,2,6,8-tetrahydrocyclopenta[3,4]pyrrolo[3,5-b]pyrazin-4-one] | – | 934
11 | Cn1cc(-c2cncc(N3CCc4c(sc5c4CCCC5)C3=O)c2CO)cc(Nc2ccc(N3CCN(C4COC4)CC3)cn2)c1=O [Example 105, 4-Hydroxymethyl-3-[1-methyl-5-({5-[4-(oxetan-3-yl)piperazin-1-yl]pyridine-2-yl}amino)-6-oxo-1,6-dihydropyridin-3-yl]-5-{6-oxo-8-thia-5-azatricyclo-[7.4.0.0^2,7]trideca-1(9),2(7)-dien-5-yl}pyridine] | 65.4 | –
12 | Cc1c2cc(Nc3cc(-c4ccnc(N5CCn6c(cc7c6CC(C)(C)C7)C5=O)c4CO)cn(C)c3=O)ncc2nn1C [Example 326, 3-[4-[5-[(2,3-dimethylpyrazolo[3,4-c]pyridin-5-yl)amino]-1-methyl-6-oxo-3-pyridyl]-3-(hydroxymethyl)-2-pyridyl]-7,7-dimethyl-1,2,6,8-tetrahydrocyclopenta[3,4]pyrrolo[3,5-b]pyrazin-4-one] | – | 1400
13 | Cn1cc(Nc2cc(-c3ccnc(N4CCn5c(cc6c5CC(C)(C)C6)C4=O)c3CO)cn(C)c2=O)nn1 [Example 293, 3-[3-(hydroxymethyl)-4-[1-methyl-5-[(1-methyltriazol-4-yl)amino]-6-oxo-3-pyridyl]-2-pyridyl]-7,7-dimethyl-1,2,6,8-tetrahydrocyclopenta[3,4]pyrrolo[3,5-b]pyrazin-4-one] | – | 69.1
14 | Cn1cc(-c2ccnc(N3CCn4c(cc5c4CC(C)(C)C5)C3=O)c2CO)cc(Nc2nc3c(s2)CNCC3)c1=O [Example 233, 3-[3-(hydroxymethyl)-4-[1-methyl-6-oxo-5-(4,5,6,7-tetrahydrothiazolo[5,4-c]pyridin-2-ylamino)-3-pyridyl]-2-pyridyl]-7,7-dimethyl-1,2,6,8-tetrahydrocyclopenta[3,4]pyrrolo[3,5-b]pyrazin-4-one] | – | 65.7
15 | C[C@@H]1CN(c2ccc(Nc3cc(-c4ccnc(-n5ccn6c7c(cc6c5=O)CCCC7)c4CO)cn(C)c3=O)nc2)[C@@H](C)CN1C1COC1 [Example 160, 2-{5-[5-((2S, 5R)-2,5-Dimethyl-4-oxetan-3-yl-piperazin-1-yl)-pyridin-2-ylamino]-3′-hydroxymethyl-1-methyl-6-oxo-1,6-dihydro-[3,4′]bipyridinyl-2′-yl}-6,7,8,9-tetrahydro-2H-pyrazino[1,2-a]indol-1-one] | 54.7 | –
16 | Cn1cc(-c2ccnc(N3CCn4c(cc5c4CC(C)(C)C5)C3=O)c2CO)cc(Nc2ccnc(C(C)(C)O)n2)c1=O [Example 264, 3-[3-(hydroxymethyl)-4-[5-[[2-(1-hydroxy-1-methyl-ethyl)pyrimidin-4-yl]amino]-1-methyl-6-oxo-3-pyridyl]-2-pyridyl]-7,7-dimethyl-1,2,6,8-tetrahydrocyclopenta[3,4]pyrrolo[3,5-b]pyrazin-4-one] | – | 653

Reference: patent publication US10045983B2, “Heteroaryl pyridone and aza-pyrodine compounds” (Genentech, Inc., priority 2011, dated 2018)
